Like-named read-outs stand apart in the source and are kept apart here.
Legend:
[1] = tested on: Omicron BA.4/BA.5 spike-pseudotyped virus; test: microbe, parasite or virus in culture; assay type: cell-based; details: 293T-ACE2 cells
[2] = tested on: Delta spike-pseudotyped virus; test: microbe, parasite or virus in culture; assay type: cell-based; details: 293T-ACE2 cells
[3] = tested on: Omicron BA.2 spike-pseudotyped virus; test: microbe, parasite or virus in culture; assay type: cell-based; details: 293T-ACE2 cells
HIV-1NL4-3-nanoluc-sec [4] = details: previously described; ref [19],[20],[21],[22]; cited from earlier work
[5] = tested on: PA/Puerto Rico/8/1934 Influenza A Virus (PR8); details: cited from earlier work
in vitro = assay type: cell-based; details: human; concentration that reduced viability of 293T-ACE2 cells by 50%; 3 days
Experimental: The CellTiter-Glo® Luminescent Cell Viability Assay (Promega, Cat. # G7570 ) was used to determine the cytotoxicity of the aloperine derivatives. 293T-ACE2 cells were cultured in the presence of various concentrations of the compounds for 3 days. The cytotoxicity of the compounds was determined by following the protocol provided by the manufacturer. The 50% cytotoxic concentration (CC50) was defined as the concentration that caused a 50% reduction in cell viability.

[6] = tested on: D614G spike-pseudotyped virus in 293T-ACE2 cells; assay type: cell-based; details: 5 µM, 2 h infection with D614G spike-pseudotyped virus
cathepsin L = molecular target: T1, cathepsin L (Homo sapiens, UniProt P07711); test: Cathepsin L inhibitor assay kit (BPS bioscience); assay type: biochemical; details: tested at 20 µM, duplicated experiment
T1 construct: purchased BPS bioscience

cathepsin B = molecular target: T2, cathepsin B (Homo sapiens, UniProt P07858); test: Cathepsin B inhibitor assay kit (BPS bioscience); assay type: biochemical; details: for Inhibitory activity against cathepsin B: tested at 20 µM, duplicated experiment
T2 construct: purchased BPS bioscience 79590

[7] = tested on: murine leukemia virus envelope (MLV-env) pseudotyped virus; test: microbe, parasite or virus in culture; assay type: cell-based; details: spike protein replaced with MLV-env, marked ** in Table 1
HIV-1NL4-3-nanoluc-sec [8] = assay type: cell-based; details: new compound 9, no reference given; Inac = CC50/IC50 ratio < 5
[9] = tested on: PA/Puerto Rico/8/1934 Influenza A Virus (PR8); test: microbe, parasite or virus in culture; assay type: cell-based; details: new compound 9, no reference given
[10] = Severe acute respiratory syndrome coronavirus 2

T1 sequence (P07711 114-333): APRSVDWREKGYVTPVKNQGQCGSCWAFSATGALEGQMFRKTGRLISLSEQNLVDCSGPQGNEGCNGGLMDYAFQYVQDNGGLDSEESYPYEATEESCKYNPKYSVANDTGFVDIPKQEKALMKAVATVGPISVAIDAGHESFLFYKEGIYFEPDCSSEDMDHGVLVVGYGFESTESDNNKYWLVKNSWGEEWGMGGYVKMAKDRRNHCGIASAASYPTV

Compound	IC50 (HIV-1NL4-3-nanoluc-sec [4]) [µM]	IC50 [5] [µM]	CC50 (in vitro) [µM]	other results
CCOC(=O)[C@H]1O[C@@H]1C(=O)N[C@@H](CC(C)C)C(=O)NCCC(C)C [Compound E64D, E64D, reference compound]				IC50 [1]: 0.34 ± 0.081 µM; IC50 [2]: 0.45 ± 0.082 µM; IC50 [3]: 0.37 ± 0.066 µM
COc1ccc(C(=O)NCCCCN2CCCC3=CC4CC(CN5CCCCC45)C32)cc1 (centres unmarked) [Compound 6]	11.4	> 20	> 20	
CCN(CC)CCCC(C)Nc1ccnc2cc(Cl)ccc12 (centres unmarked) [Chloroquine diphosphate, reference compound]				Spike protein (virus) puncta in 293T-ACE2 cells under confocal microscope [6]: no accumulation of viral puncta
O=C(NCCN1CCCC2=CC3CC(CN4CCCCC34)C21)c1ccccc1F (centres unmarked) [Compound 2]	> 25	5.5		
O=C(NCCCCCCCC(=O)N1CCCC2=CC3CC(CN4CCCCC34)C21)c1ccc(OC(F)(F)F)cc1 (centres unmarked) [Compound 8]	> 20	> 28.5	> 20	IC50, HIV-1NL4-3-nanoluc-sec (HIV-1NL4-3-nanoluc-sec [4]): inactive; IC50, PA/Puerto Rico/8/1934 Influenza A Virus (PR8) [5]: inactive
CC(C)(C)c1ccc(C(=O)NCCCCCCN2CCCC3=CC4CC(CN5CCCCC45)C32)cc1 (centres unmarked) [Compound 7]	0.8	0.83	> 20	
C1=C2CCCN(CCCCCNCc3ccccc3)C2C2CC1C1CCCCN1C2 (centres unmarked) [Compound 4]	0.84	> 40	> 20	
C1=C2CCCN[C@H]2[C@@H]2C[C@H]1[C@H]1CCCCN1C2 [Aloperine, aloperine, reference compound]	1.75	14.5	> 20	Inhibitory activity against cathepsin L (cathepsin L): inactive; Inhibitory activity against cathepsin B (cathepsin B): inactive
CC(C)C[C@H](NC(=O)[C@H]1O[C@@H]1C(=O)O)C(=O)NCCCCN=C(N)N [Compound E64, E64, reference compound]				Inhibition of enzyme activity (cathepsin B) (cathepsin B; at 0.1 µM): more than 95%
O=C(Cc1ccc(S(=O)(=O)C(F)(F)F)cc1)NCCCCN1CCCC2=CC3CC(CN4CCCCC34)C21 (centres unmarked) [Compound 3]	0.12	> 20	> 20	IC50, PA/Puerto Rico/8/1934 Influenza A Virus (PR8) [5]: without anti-influenza virus activity
O=C(NCCCCCCN1CCCC2CC3CC(CN4CCCCC34)C21)c1c(F)cc(Br)cc1F (centres unmarked) [Compound 1]	> 20	0.091	> 20	
C1=C2CCCN(CCCCNCc3ccccc3)C2C2CC1C1CCCCN1C2 (centres unmarked) [Compound 5]	0.96	> 40	> 20	Inhibitory activity against cathepsin L (cathepsin L): totally inactive; Inhibitory activity against cathepsin L (cathepsin L; listed as compound 5): did not inhibit; IC50 [1, 10]: 0.86 ± 0.25 µM; IC50 [2, 10]: 0.58 ± 0.15 µM; IC50, PA/Puerto Rico/8/1934 Influenza A Virus (PR8) [5]: ineffective; IC50 [3, 10]: 0.83 ± 0.21 µM; Inhibitory activity against cathepsin B (cathepsin B): totally inactive; Inhibitory activity against cathepsin B (cathepsin B; listed as compound 5): did not inhibit; IC50 ([7]; Murine leukemia virus, read-out: Antiviral activity (IC50) against MLV-env pseudotyped virus): > 20 µM; Antiviral activity (IC50) against MLV-env pseudotyped virus [7]: inactive; Spike protein (virus) puncta in 293T-ACE2 cells under confocal microscope [6]: observed as puncta
Fc1ccc(CNCCCCN2CCCC3=CC4CC(CN5CCCCC45)C32)cc1 (centres unmarked) [Compound 9]			> 10	IC50, HIV-1NL4-3-nanoluc-sec (HIV-1NL4-3-nanoluc-sec [8]): Inac ^8; IC50 [9]: 4.8 ± 1.4 µM

Source: paper PMC9455918, “Quinolizidines as Novel SARS-CoV-2 Entry Inhibitors” (International Journal of Molecular Sciences, 2022)
